Experimental data reported in patent publication US10041922B2, “Biochemistry based ocular toxicity assay” (priority 2015, dated 2018).
Like-named read-outs stand apart in the source and are kept apart here.

Experiments:
eye = conditions: cited from earlier work
[1] = test system: water-soluble protein/glycoprotein test matrix
Protocol: (§1) The macromolecule based test matrix behaves as an active agent in the assay and is capable of undergoing a measurable change when exposed to an ocular irritant. The measurable change may be a change in appearance, which can be measured by spectrophotometry. One or more standards of known toxicity are added to at least a second aliquot of the water-soluble matrix to form control solutions, to generate a calibration curve. The measurable change induced by the test substance can be compared to the measurable change induced by the standards to make an ocular toxicity prediction. For instance, test substances that induce an equal or greater reaction than a known irritant may be classified as ocular irritants. In some embodiments, the pH of the control solution may be adjusted to match the pH of the test solution, thereby controlling for pH effects and increasing accuracy. In some embodiments, a test substance which is at least partially water insoluble is added to an aliquot of a reagent comprised of one or more hydrophobic organic polymers capable of undergoing a measurable change in response to water insoluble ocular irritants. The measurable change may be a change in appearance, which can be measured by spectrophotometry. One or more standards of known toxicity are added to at least a second aliquot of the reagent to generate a calibration curve. The measurable change induced by the test substance can be compared to the measurable change induced by the standards to make an ocular toxicity prediction in the manner described above. Water-soluble and water-insoluble assays can be performed in parallel, or multiplexed, to rapidly and efficiently predict the ocular toxicity of a wide range of compounds.
(§2) In some embodiments related to the water-soluble sub-assay, the test matrix is a water-soluble active agent comprising one or more macromolecules in aqueous solution. […] In some embodiments, the water-soluble active agent comprises at least one of isoleucine, glutamine, leucine, lysine, tyrosine, valine, proline, methione, fumerase, serine, urocanate, triacyl glycerol, globulin, gammaglobulin, mucopolysaccharide, albumin, carbohydrates, lipids, saponins, conalbumin, ovalbumin, ovomucoid, mucin, egg white fractions, plant extract, cell extract, milk fractions, red blood cell extract, muscle extract, gelatin fractions, heme, aspartate, lignocerate, stearate, linolenate, benzoate, carnitine, palmate, coenzyme A, and urea. The molecules and macromolecules can be derived as crude cell or tissue extracts, or obtained individually or in part and reconstituted.
(§3) A third pretest is performed to measure the buffering power of the unknown test substance. […] Next, 125 μL or mg of test substance is added to the test tube. The pH of the mixture is recorded. The final pH is compared to the starting pH and the absolute value of the change in pH is applied as an exponent to base 10 to generate a buffering score. These pretest results are used to select specific procedures to further analyze the test substance. Compounds with a buffering score between 5 and 2 are within the MA α domain. Compounds outside of the MA α domain with buffering scores less than 100 are within the HMA α domain. Substances with a buffering score of at least 100 are within the H-test domain.
(§4) The MA α procedure is used to test unknowns that have a small buffering capacity. The MA α procedure predicts a substance's capacity for indirect denaturation of molecules across a membrane via osmotic effects, such as osmotic effects across the corneal epithelium and stroma which can damage the cornea. The MA α assay further analyzes Potential to damage tissue via excessive oxidation and reactivity, which can occur at the epithelium, stroma, conjunctiva and iris.

[2] = test system: water-soluble protein/glycoprotein test matrix; assay: Water soluble assay (Alpha): optical response (OD400) of the macromolecule active agent, irritation score; conditions: TP/FN/TN based on comparison with the in vivo test results
Protocol: as §1, §2, §3, §4

[3] = Water insoluble assay (Delta): optical response (OD700) of the hydrophobic polymer Δ reagent, irritation score; conditions: TP/FN/TN based on comparison with the in vivo test results
Protocol: Triplicate Δ Test and Δ Control cells are labeled as follows: Test Cell 40 μL; Control Cell 40 μL; Test Cell Standard A; Test Cell Standard B. The cells are placed in a rack. 40 μL aliquots of test sample are added to the three Δ positive cells. 40 μL of Standard A+ and 40 μL of Standard B+ are added to the respective triplicate cells. 40 μL of test substance is aliquoted to the True Negative cell. All test and standard cells (A+, B+, and control cells) are filled with 2 mL of Δ reagent. […] 2 mL of Δ reagent is added to a naïve Δ test cell to blank a spectrophotometer. The OD700 value is measured for all test and standard cells. Where the substance is colored or opaque, 2 mL of Δ reagent are added to a naïve control Δ cell, and the OD700 value is measured for all control cells.
Test Cell values are recorded. Control cell values are recorded. Where samples are colored or opaque Net OD700 values are obtained by subtracting the average of the control cell OD700 value from the average of the test cell OD700 value. The average of positive controls A+ and B+ are calculated.
For each unknown, an irritancy classification is ascertained by using the closest positive cell value. The highest measured value is used. The standard with the closest OD value is identified as the Closest Standard Value. The Measured Value is divided by the mean of the three Closest Standard Values. A multiplier is applied to the quotient corresponding to the designation of the Closest Standard Value. If the Closest Standard Value is A+, the multiplier is 8. […] The resulting value is the irritation score for the sample. The highest score is used to predict the irritancy of the sample.

[4] = category of irritant from published in vivo irritancy tests (GHS)

Structure (SMILES) | in vivo (eye; rabbit, in vivo) | Water soluble assay (Alpha) [1] | Water soluble assay (Alpha), parenthetical call versus in vivo [1] | in vivo (eye; [4]) | Water soluble assay (Alpha), parenthetical call versus in vivo [2] | water insoluble assay (Delta), parenthetical call versus in vivo [3]
CCOC(=O)C(C)(C)O [Ethyl a-hydroxyisobutyrate] | Category 1 | >60 | (TP) | – | – | –
CO[Si](CCCNCCC[Si](OC)(OC)OC)(OC)OC [Organofunctional Silane] | Category 1 | 25.53 | (TP) | – | – | –
CC(C)O [2-Propanol] | – | – | – | Category 2A | (TP) | (FN)
CCCCC(CC)COC(=O)c1ccc(N(C)C)cc1 (stereo not shown) [2-Ethylhexyl 4-(dimethylamino)benzoate] | – | – | – | Not Classified | (TN) | (TN)
CN(C)CCCCCCN(C)C [tetramethyl-1,6 hexanediame] | – | – | – | – | (TP) | (TP)
ClCCCCBr [1-Bromo-4-chlorobutane] | – | – | – | Not Classified | (TN) | TN)
BrCCCCCCBr [1,6-Dibromohexane] | – | – | – | Not Classified | (TN) | (TN)
CCC(C)(C)C(=O)O [2,2-Dimethyl Butanoic Acid] | – | – | – | – | (TP) | (FN)
C=CC(=O)OCCO [Hydroxyethyl acrylate] | – | – | – | – | (TP) | –
O=C=Nc1ccc(Cl)c(Cl)c1 [3,4-Dichlorophenyl isocyanate] | – | – | – | – | (TP) | (FN)
c1ccncc1 [Pyridine] | Category 1 | – | – | – | – | –
CCCCCCO [1-Hexanol] | – | – | – | Category 2A | (TP) | (FN)
NCCO [Ethanolamine] | – | – | – | Category 2B | (TP) | (FN)
CCOC(=O)C(C)C(C)=O (stereo not shown) [Ethyl 2-methyl] | Category 2B | 10.9 | (FN) | – | – | –
CCCCCCCCN [n-Octylamine] | – | – | – | – | (TP) | (TP)
OCc1ccccc1 [Benzyl Alcohol] | – | – | – | – | (TP) | (TP)
CCCCCCCCCCCC [Dodecane] | – | – | – | Not Classified | (TN) | (TN)
O=C(Cl)C(Cl)(Cl)Cl [Trichloroacetyl chloride] | – | – | – | – | (TP) | (TP)
CCN(CC)CCO [Diethylethanolamine] | Category 1 | 53.54 | (TP) | – | – | –
CC(C)(C)CC(C)(C)c1ccc(O)cc1 [4-(1,1,3,3-Tetramethylbutyl)phenol] | – | – | – | – | (TP) | (FN)
